According to patent US20090137661A1, “PLANT DERIVED COMPOUNDS AND COMPOUND FORMULAE CONTAINING THE SAME FOR THE TREATMENT OF CERVICAL CANCER” (priority 2007, published 2009):
≈ marks a conversion by molar mass, not a printed value. Read-outs that look alike come from different tables or passages of the source.

Tests used:
HeLa cells [1] = test: Cytotoxicity assay (MTT assay) on HeLa cells; details: for IC50: Homo sapiens, HeLa
Protocol: HeLa cell line was obtained from Dr. S. S. Shen (Biomedical Engineering Research Laboratories of Industrial Technology Research Institute of Taiwan). HeLa cells are adherent cells and were propagated and maintained in Dulbecco's modified Eagle's medium (DMEM) supplemented with 10% fetal bovine serum (FBS), […] sodium bicarbonate (NaHCO3), 1 mM sodium pyruvate, and 0.1 mM non-essential amino acid.
Cytotoxicity Assay (MTT Assay)
The cytotoxicity of the compounds set forth herein to HeLa cells and HUVEC cells were determined by the MTT assay. The HUVEC cells were used to understand the cytotoxicity of said compounds to normal human cells. Besides, doxorubicin HCl was used as a comparative example so as to investigate the efficacy of the compounds according to the embodiments of the present invention.
Briefly, the MTT assay comprises the following steps: • (A) Cells were seeded in 96-well plates 3 hours before treatment, wherein the density of HeLa cell is 1×10^4 cells per well and the density of HUVEC cell is 2×10^4 cells per well; • (B) Cells were then treated with various concentrations of tested samples and incubated for a predetermined period (24, 48, and 72 hours); • (C) After the predetermined periods expired, the tested samples were removed and 100 μl MTT reagent (1 mg/ml) was added to each well; • (D) The plates were incubated at 37° C. with 5% of CO2 for 5 hours; • (E) The MTT reagent was removed and 100 μl DMSO was added to each well; • (F) The optical density (O.D.) of each well was determined by ELISA reader at a wavelength of 560 nm.
Each experiment was repeated for 3 times and the result shown in the tables herein were the mean value of the 3 repetitions. The O.D. of the vehicle control and experimental groups were recorded. The cell survival rate of each sample was calculated as follows:
Cell survival rate(%)=O.D.control/O.D.experimental*100%
Then, the cell survival rate was plotted against the compound concentration and the IC50 value of each compound was calculated by the GraFit data analysis software (Erithacus Software Ltd.).

HPV 16 pseudovirus = test: Screening for anti-infection compounds (GFP-expressing HPV 16 pseudovirus infecting HeLa cells); assay type: cell-based, human papilloma virus 16; details: Pseudovirus, HeLa, 48 h, read-out: IC50 for inhibiting HPV 16 pseudoviruses
Protocol: […] were co-transfected with codon-modified papillomavirus capsid genes, L1 and L2, plasmid: p16shell, and a GFP reporter plasmid, pClneo-GFP, to monitor the infectivity of the stock.
The GFP-expressing HPV 16 pseudoviruses were prepared and harvested in accordance with the protocol provided by the National Cancer Institute (USA). Said protocol is available on line at http://home.ccr.cancer.gov/lco/production.asp which is incorporated herein by reference in its entirety.
In the present application, the GFP-expressing HPV 16 pseudoviruses used have titers of about 4*10^8 infectious units per ml.
HeLa cells were seeded in 96-well plates at a density of 6×10^3 cells per well. 24 hours later, 2×HPV 16 pseudoviruses of various volumes were added. The signal to background ratio of each volume of the HPV 16 pseudoviruses was illustrated in FIG. 2.
When choosing screening platform, the infection rate should be around 20%. […] Under this dosage, the signal to background ratio is 2.0-2.5.
(§1) Carrageenan was used as positive control. […] The cell survival rate and IC50 of each sample were obtained in accordance with the method stated above.

HeLa cells [2] = test: MTT assay within the anti-infection screening platform; assay type: cell-based, human; details: 48 hours, concentrations inhibiting HPV 16 pseudovirus
Description: as §1

## O=C(O)c1cc(O)c(O)c(O)c1 [Compound D, gallic acid]
HeLa cells [1]; 0.125 μg/ml, 24 hrs
  HeLa Cell Survival Rate: 85%
HeLa cells [1]; 0.125 μg/ml, 48 hrs
  HeLa Cell Survival Rate: 96%
HeLa cells [1]; 0.125 μg/ml, 72 hrs
  HeLa Cell Survival Rate: 101%
HeLa cells [1]; 1.25 μg/ml, 24 hrs
  HeLa Cell Survival Rate: 84%
HeLa cells [1]; 1.25 μg/ml, 48 hrs
  HeLa Cell Survival Rate: 91%
HeLa cells [1]; 1.25 μg/ml, 72 hrs
  HeLa Cell Survival Rate: 103%
HeLa cells [1]; 12.5 μg/ml, 24 hrs
  HeLa Cell Survival Rate: 90%
HeLa cells [1]; 12.5 μg/ml, 48 hrs
  HeLa Cell Survival Rate: 82%
HeLa cells [1]; 12.5 μg/ml, 72 hrs
  HeLa Cell Survival Rate: 99%
HeLa cells [1]; 125 μg/ml, 24 hrs
  HeLa Cell Survival Rate: 17%
HeLa cells [1]; 125 μg/ml, 48 hrs
  HeLa Cell Survival Rate: 11%
HeLa cells [1]; 125 μg/ml, 72 hrs
  HeLa Cell Survival Rate: 8%
HeLa cells [1]; 24 h, read-out: IC50 at 24 hours, HeLa
  IC50: 37 µg/mL (≈ 217 µM)
HeLa cells [1]; 48 h, read-out: IC50 at 48 hours, HeLa
  IC50: 26 µg/mL (≈ 153 µM)
HeLa cells [1]; 72 h, read-out: IC50 at 72 hours, HeLa
  IC50: 45 µg/mL (≈ 265 µM)
HeLa cells [1]; under the corresponding conditions
  cytotoxicity to HeLa cells compared with Doxorubicin HCl: higher cytotoxicity
HPV 16 pseudovirus
  IC50: 8.9 µg/mL (≈ 52.3 µM)
HeLa cells [2]
  survival rates of HeLa cells in anti-infection screening: higher than 80%
